The assay has as its system MV-4-11 cells. The assay can be described thus: Gene expression microarray analysis (Affymetrix PrimeView) and GSEA. As to conditions: ProbeSet 11724763_s_at; LIST D. The arrangement: RFU PODN (11730768_x_at) / Fold change /veh PODN (11730768_x_at) / RFU LINC00158 (11744669_a_at) / Fold change /veh LINC00158 (11744669_a_at) / RFU DUSP10 (11751237_a_at) / Fold change /veh DUSP10 (11751237_a_at) / RFU ID3 (11757404_x_at) / Fold change /veh ID3 (11757404_x_at) / RFU PLEKHG5 (11737974_s_at) / Fold change /veh PLEKHG5 (11737974_s_at) / RFU LRRC4B (11730491_at) / Fold change /veh LRRC4B (11730491_at) / RFU GIMAP4 (11747438_a_at) / Fold change /veh GIMAP4 (11747438_a_at) / RFU KRT8 (11758183_x_at) / Fold change /veh KRT8 (11758183_x_at) / RFU CNN1 (11734310_a_at) / Fold change /veh CNN1 (11734310_a_at) / RFU VPS37D (11726825_at) / Fold change /veh VPS37D (11726825_at) / RFU C10orf10 (11716522_x_at) / Fold change /veh C10orf10 (11716522_x_at) / RFU KIR2DL2 /// KIR2DL4 /// KIR2DL5A /// KIR2DL5B /// KIR2DS1 /// KIR2DS2 /// KIR2DS3 /// KIR2DS4 /// KIR3DL3 /// KIR3DL3 /// KIR3DS1 (11738374_at) / Fold change /veh KIR2DL2 /// KIR2DL4 /// KIR2DL5A /// KIR2DL5B /// KIR2DS1 /// KIR2DS2 /// KIR2DS3 /// KIR2DS4 /// KIR3DL3 /// KIR3DL3 /// KIR3DS1 (11738374_at) / RFU C1QL1 (11718748_at) / Fold change /veh C1QL1 (11718748_at) / RFU TMPRSS4 (11747572_a_at) / Fold change /veh TMPRSS4 (11747572_a_at) / RFU HAMP (11756126_x_at) / Fold change /veh HAMP (11756126_x_at) / RFU RNFT2 (11725882_a_at) / Fold change /veh RNFT2 (11725882_a_at) / RFU NR4A2 (11747474_a_at) / Fold change /veh NR4A2 (11747474_a_at) / RFU ABCC12 (11746883_a_at) / Fold change /veh ABCC12 (11746883_a_at) / RFU TMEM136 (11760407_x_at) / Fold change /veh TMEM136 (11760407_x_at) / RFU CLDN22 /// WWC2 (11732394_at) / Fold change /veh CLDN22 /// WWC2 (11732394_at) / RFU HLA-DPB1 (11760878_x_at) / Fold change /veh HLA-DPB1 (11760878_x_at) / RFU SPINT1 (11716480_a_at) / Fold change /veh SPINT1 (11716480_a_at) / RFU GAP43 (11754022_s_at) / Fold change /veh GAP43 (11754022_s_at) / RFU A4GNT (11735810_at) / Fold change /veh A4GNT (11735810_at) / RFU PRB3 (11715151_x_at) / Fold change /veh PRB3 (11715151_x_at) / RFU TUBB4B (11761932_at) / Fold change /veh TUBB4B (11761932_at) / RFU CAPN14 (11732068_a_at) / Fold change /veh CAPN14 (11732068_a_at) / RFU TMCC2 (11721928_a_at) / Fold change /veh TMCC2 (11721928_a_at) / RFU IRGQ (11745062_a_at) / Fold change /veh IRGQ (11745062_a_at) / RFU FAM174B (11720279_a_at) / Fold change /veh FAM174B (11720279_a_at) / RFU TMPRSS4 (11748680_a_at) / Fold change /veh TMPRSS4 (11748680_a_at) / RFU FAM212B (11763350_a_at) / Fold change /veh FAM212B (11763350_a_at) / RFU PLEKHG5 (11743358_a_at) / Fold change /veh PLEKHG5 (11743358_a_at) / RFU ZSCAN30 (11745921_a_at) / Fold change /veh ZSCAN30 (11745921_a_at) / RFU CMKLR1 (11741424_a_at) / Fold change /veh CMKLR1 (11741424_a_at) / RFU LOC101060620 /// MAPK8IP1 (11723275_at) / Fold change /veh LOC101060620 /// MAPK8IP1 (11723275_at) / RFU SPTSSB (11747773_x_at) / Fold change /veh SPTSSB (11747773_x_at) / RFU PRSS12 (11739890_at) / Fold change /veh PRSS12 (11739890_at) / RFU BIN1 (11741810_x_at) / Fold change /veh BIN1 (11741810_x_at) / RFU WNT11 (11732464_a_at) / Fold change /veh WNT11 (11732464_a_at) / RFU C10orf10 (11716521_a_at) / Fold change /veh C10orf10 (11716521_a_at) / RFU C5orf56 (11738089_at) / Fold change /veh C5orf56 (11738089_at) / RFU CYB561 (11721691_x_at) / Fold change /veh CYB561 (11721691_x_at) / RFU ANKRD19P (11752326_a_at) / Fold change /veh ANKRD19P (11752326_a_at) / RFU OR2T12 /// OR2T33 /// OR2T8 (11738714_s_at) / Fold change /veh OR2T12 /// OR2T33 /// OR2T8 (11738714_s_at) / RFU VCAN (11748164_a_at) / Fold change /veh VCAN (11748164_a_at) / RFU JSRP1 (11732532_at) / Fold change /veh JSRP1 (11732532_at) / RFU KRTAP10-11 (11738290_x_at) / Fold change /veh KRTAP10-11 (11738290_x_at) / RFU MYO3A (11730013_a_at) / Fold change /veh MYO3A (11730013_a_at) / RFU EBF3 (11725865_a_at) / Fold change /veh EBF3 (11725865_a_at) / RFU CAMK2N1 (11719241_x_at) / Fold change /veh CAMK2N1 (11719241_x_at) / RFU C5orf56 (11738088_a_at) / Fold change /veh C5orf56 (11738088_a_at) / RFU OLFML3 (11715873_a_at) / Fold change /veh OLFML3 (11715873_a_at) / RFU LOC100653217 /// NTM (11731650_a_at) / Fold change /veh LOC100653217 /// NTM (11731650_a_at) / RFU MAPK11 (11762145_a_at) / Fold change /veh MAPK11 (11762145_a_at) / RFU FIZ1 (11724087_x_at) / Fold change /veh FIZ1 (11724087_x_at) / RFU OASL (11726364_x_at) / Fold change /veh OASL (11726364_x_at) / RFU SOX15 (11748057_x_at) / Fold change /veh SOX15 (11748057_x_at) / RFU CD79A (11719716_a_at) / Fold change /veh CD79A (11719716_a_at) / RFU HIST1H1D (11736915_at) / Fold change /veh HIST1H1D (11736915_at) / RFU CASKIN2 (11723855_a_at) / Fold change /veh CASKIN2 (11723855_a_at) / RFU LOC730098 (11760151_x_at) / Fold change /veh LOC730098 (11760151_x_at) / RFU OR4N2 (11742367_at) / Fold change /veh OR4N2 (11742367_at) / RFU PRRT2 (11749266_a_at) / Fold change /veh PRRT2 (11749266_a_at) / RFU SNX32 (11753110_a_at) / Fold change /veh SNX32 (11753110_a_at) / RFU CDHR5 (11726645_a_at) / Fold change /veh CDHR5 (11726645_a_at) / RFU RCAN1 (11760418_a_at) / Fold change /veh RCAN1 (11760418_a_at) / RFU FAM167A (11723789_a_at) / Fold change /veh FAM167A (11723789_a_at) / RFU FAM26E (11764081_at) / Fold change /veh FAM26E (11764081_at) / RFU ISYNA1 (11749810_s_at) / Fold change /veh ISYNA1 (11749810_s_at) / RFU ACY1 (11761880_at) / Fold change /veh ACY1 (11761880_at) / RFU 11764098_at / Fold change /veh 11764098_at / RFU SAMD14 (11745864_x_at) / Fold change /veh SAMD14 (11745864_x_at) / RFU NPB (11741838_a_at) / Fold change /veh NPB (11741838_a_at) / RFU TMPRSS6 (11731388_a_at) / Fold change /veh TMPRSS6 (11731388_a_at) / RFU KRTAP10-2 (11738614_at) / Fold change /veh KRTAP10-2 (11738614_at) / RFU ARHGAP8 /// PRR5-ARHGAP8 (11727945_x_at) / Fold change /veh ARHGAP8 /// PRR5-ARHGAP8 (11727945_x_at) / RFU KRTAP5-7 /// NADSYN1 (11734609_at) / Fold change /veh KRTAP5-7 /// NADSYN1 (11734609_at) / RFU RASL12 (11751679_a_at) / Fold change /veh RASL12 (11751679_a_at) / RFU CDKN2B (11736163_a_at) / Fold change /veh CDKN2B (11736163_a_at) / RFU PRF1 (11729649_at) / Fold change /veh PRF1 (11729649_at) / RFU, ZNF638 /// ZNF638-IT1 / Fold change vs veh, ZNF638 /// ZNF638-IT1 / RFU, PANK3 / Fold change vs veh, PANK3 / RFU, SH3YL1 / Fold change vs veh, SH3YL1 / RFU, ZEB2 / Fold change vs veh, ZEB2 / RFU, NRIP1 / Fold change vs veh, NRIP1 / RFU, PTTG1IP / Fold change vs veh, PTTG1IP / RFU, CAPN2 / Fold change vs veh, CAPN2 / RFU, MED14 / Fold change vs veh, MED14 / RFU, SNORA58 / Fold change vs veh, SNORA58 / RFU, C1orf63 / Fold change vs veh, C1orf63 / RFU, LRRFIP1 / Fold change vs veh, LRRFIP1 / RFU, NDUFAF7 / Fold change vs veh, NDUFAF7 / RFU, SLC12A2 / Fold change vs veh, SLC12A2 / RFU, IBTK / Fold change vs veh, IBTK / RFU, ESF1 / Fold change vs veh, ESF1 / Fold change vs veh, TMEM50B / RFU, TAOK1 / Fold change vs veh, TAOK1 / RFU, ACBD3 / Fold change vs veh, ACBD3 / RFU, TMA16 / Fold change vs veh, TMA16 / RFU, RWDD3 / Fold change vs veh, RWDD3 / RFU, BCAT1 / Fold change vs veh, BCAT1 / RFU, EDEM3 / Fold change vs veh, EDEM3 / RFU, TMEM33 / Fold change vs veh, TMEM33 / RFU, WDR75 / Fold change vs veh, WDR75 / RFU, AHCTF1 / Fold change vs veh, AHCTF1 / RFU, TFRC / Fold change vs veh, TFRC / RFU, ZDHHC17 / Fold change vs veh, ZDHHC17 / RFU, NOM1 / Fold change vs veh, NOM1 / RFU, ARL8B / Fold change vs veh, ARL8B / RFU, ZBTB11 / Fold change vs veh, ZBTB11 / RFU, TAMM41 / Fold change vs veh, TAMM41 / RFU, KIAA1704 /// LOC100996395 / Fold change vs veh, KIAA1704 /// LOC100996395 / RFU, ING1 / Fold change vs veh, ING1 / RFU, TRMT61B / Fold change vs veh, TRMT61B / RFU, FUBP3 / Fold change vs veh, FUBP3 / RFU, TP53 / Fold change vs veh, TP53 / RFU, TNKS2 / Fold change vs veh, TNKS2 / RFU, ZFP14 / Fold change vs veh, ZFP14 / RFU, ACTR2 / Fold change vs veh, ACTR2 / RFU, PPP3R1 / Fold change vs veh, PPP3R1 / RFU, PIK3R1 / Fold change vs veh, PIK3R1 / RFU, HNRNPA1 / Fold change vs veh, HNRNPA1 / RFU, RNF170 / Fold change vs veh, RNF170 / RFU, ZNF28 / Fold change vs veh, ZNF28 / RFU, RNGTT / Fold change vs veh, RNGTT / RFU, OGT / Fold change vs veh, OGT / RFU, BRD1 / Fold change vs veh, BRD1 / RFU, MARS / Fold change vs veh, MARS / RFU, ZNF655 / Fold change vs veh, ZNF655 / RFU, FAHD1 / Fold change vs veh, FAHD1 / RFU, BDP1 / Fold change vs veh, BDP1 / RFU, LRRCC1 / Fold change vs veh, LRRCC1 / RFU, ARID1A / Fold change vs veh, ARID1A / RFU, ZNF146 / Fold change vs veh, ZNF146 / RFU, ZNF330 / Fold change vs veh, ZNF330 / RFU, GPN3 / Fold change vs veh, GPN3 / RFU, C9orf123 / Fold change vs veh, C9orf123 / RFU, N4BP2L2 / Fold change vs veh, N4BP2L2 / RFU, ARFIP1 / Fold change vs veh, ARFIP1 / RFU, FAM179B / Fold change vs veh, FAM179B / RFU, BCL10 / Fold change vs veh, BCL10 / RFU, UHRF1BP1L / Fold change vs veh, UHRF1BP1L / RFU, BET1 / Fold change vs veh, BET1 / RFU, CNOT2 / Fold change vs veh, CNOT2 / RFU, ZNF268 / Fold change vs veh, ZNF268 / Fold change vs veh, ZNF507 / RFU, DGCR2 / Fold change vs veh, DGCR2 / RFU, WDSUB1 / Fold change vs veh, WDSUB1 / Fold change vs veh, HSP90B1 /// MIR3652 / RFU, ADSS / Fold change vs veh, ADSS / RFU, GK / Fold change vs veh, GK / RFU, ZNF148 / Fold change vs veh, ZNF148 / RFU, TAF9 / Fold change vs veh, TAF9 / RFU, SLC1A5 / Fold change vs veh, SLC1A5 / RFU, SLMO2 / Fold change vs veh, SLMO2 / RFU, ABCC4 / Fold change vs veh, ABCC4 / RFU, LOC101060439 /// RAP1B / Fold change vs veh, LOC101060439 /// RAP1B / RFU, RFX7 / Fold change vs veh, RFX7 / RFU, GTPBP10 / Fold change vs veh, GTPBP10 / RFU, CNEP1R1 / Fold change vs veh, CNEP1R1 / RFU, BIVM-ERCC5 /// ERCC5 / Fold change vs veh, BIVM-ERCC5 /// ERCC5 / RFU, ILF3 / Fold change vs veh, ILF3 / RFU 11762660_at / Fold change /veh 11762660_at / RFU VCAN (11757783_s_at) / Fold change /veh VCAN (11757783_s_at) / RFU DDX43 (11728927_at) / Fold change /veh DDX43 (11728927_at) / RFU KRT8 (11758188_x_at) / Fold change /veh KRT8 (11758188_x_at) / RFU NKD1 (11759106_at) / Fold change /veh NKD1 (11759106_at) / RFU SRD5A1 (11742802_a_at) / Fold change /veh SRD5A1 (11742802_a_at) / RFU TPSAB1 /// TPSB2 (11721975_s_at) / Fold change /veh TPSAB1 /// TPSB2 (11721975_s_at) / RFU GSTM3 (11746129_a_at) / Fold change /veh GSTM3 (11746129_a_at) / RFU IL23R (11737362_x_at) / Fold change /veh IL23R (11737362_x_at) / RFU TMEM51 (11727254_a_at) / Fold change /veh TMEM51 (11727254_a_at) / RFU PIWIL2 (11732686_x_at) / Fold change /veh PIWIL2 (11732686_x_at) / RFU ORM1 (11744905_x_at) / Fold change /veh ORM1 (11744905_x_at) / RFU CCDC152 (11743942_at) / Fold change /veh CCDC152 (11743942_at) / RFU ECM1 (11717891_a_at) / Fold change /veh ECM1 (11717891_a_at) / RFU IL23R (11748794_a_at) / Fold change /veh IL23R (11748794_a_at) / RFU TNFAIP8L3 (11732012_x_at) / Fold change /veh TNFAIP8L3 (11732012_x_at) / RFU MBOAT4 (11741988_at) / Fold change /veh MBOAT4 (11741988_at) / RFU 11764193_at / Fold change /veh 11764193_at / RFU TMEM53 (11763286_at) / Fold change /veh TMEM53 (11763286_at) / RFU MAGEB2 (11727129_at) / Fold change /veh MAGEB2 (11727129_at) / RFU TMEM200A (11744735_a_at) / Fold change /veh TMEM200A (11744735_a_at) / RFU CCDC152 (11751479_a_at) / Fold change /veh CCDC152 (11751479_a_at) / RFU FAM211A (11726209_a_at) / Fold change /veh FAM211A (11726209_a_at) / RFU RGS16 (11746705_a_at) / Fold change /veh RGS16 (11746705_a_at) / RFU VCAN (11755009_s_at) / Fold change /veh VCAN (11755009_s_at) / RFU RHOB (11743442_s_at) / Fold change /veh RHOB (11743442_s_at) / RFU RGS16 (11720943_a_at) / Fold change /veh RGS16 (11720943_a_at) / RFU RGS16 (11720944_at) / Fold change /veh RGS16 (11720944_at) / RFU, VPS4B / Fold change vs veh, VPS4B / RFU, CREB1 / Fold change vs veh, CREB1 / RFU, DNAJC13 / Fold change vs veh, DNAJC13 / RFU, GNAQ / Fold change vs veh, GNAQ / RFU, CDK5R1 / Fold change vs veh, CDK5R1 / RFU, ZRANB3 / Fold change vs veh, ZRANB3 / RFU, CUL4A / Fold change vs veh, CUL4A / RFU, CCNY / Fold change vs veh, CCNY / RFU, UFL1 / Fold change vs veh, UFL1 / RFU, COG3 / Fold change vs veh, COG3 / RFU, DIAPH2 / Fold change vs veh, DIAPH2 / RFU, SKA2 / Fold change vs veh, SKA2 / RFU, AFF3 / Fold change vs veh, AFF3 / RFU, LMF1 / Fold change vs veh, LMF1 / RFU, IPO11 / Fold change vs veh, IPO11 / RFU, DFFB / Fold change vs veh, DFFB / RFU, FOXP1 / Fold change vs veh, FOXP1 / RFU, CARD8 / Fold change vs veh, CARD8 / RFU, STRN3 / Fold change vs veh, STRN3 / RFU, ADK / Fold change vs veh, ADK / RFU, RASSF2 / Fold change vs veh, RASSF2 / RFU, WIPF1 / Fold change vs veh, WIPF1 / RFU, LARP1B / Fold change vs veh, LARP1B / RFU, RASA1 / Fold change vs veh, RASA1 / RFU, RB1 / Fold change vs veh, RB1 / RFU, PPFIA1 / Fold change vs veh, PPFIA1 / RFU, MAT2A / Fold change vs veh, MAT2A / RFU, CCT5 / Fold change vs veh, CCT5 / RFU, WDR92 / Fold change vs veh, WDR92 / RFU, CUX1 / Fold change vs veh, CUX1 / RFU, TTC7A / Fold change vs veh, TTC7A / RFU, TMEM135 / Fold change vs veh, TMEM135 / RFU, DEPTOR / Fold change vs veh, DEPTOR / RFU, CPM / Fold change vs veh, CPM / RFU, DNAJB6 / Fold change vs veh, DNAJB6 / RFU, CACNA2D3 / Fold change vs veh, CACNA2D3 / RFU, DTX4 / Fold change vs veh, DTX4 / RFU, TFCP2 / Fold change vs veh, TFCP2 / RFU, GMCL1 /// GMCL1P1 / Fold change vs veh, GMCL1 /// GMCL1P1 / RFU, AEBP2 / Fold change vs veh, AEBP2 / RFU, SNHG1 /// SNORD22 /// SNORD25 /// SNORD26 /// SNORD27 /// SNORD28 /// SNORD29 /// SNORD31 / Fold change vs veh, SNHG1 /// SNORD22 /// SNORD25 /// SNORD26 /// SNORD27 /// SNORD28 /// SNORD29 /// SNORD31 / Fold change (Aza/veh), C12orf56 (ProbeSet 11735607_a_at) / Fold change (ACY-1035/veh), C12orf56 (ProbeSet 11735607_a_at) / Fold change (Aza/veh), FGFR1OP (ProbeSet 11751329_s_at) / Fold change (ACY-1035/veh), FGFR1OP (ProbeSet 11751329_s_at) / Fold change (Aza/veh), VPS36 (ProbeSet 11739960_a_at) / Fold change (ACY-1035/veh), VPS36 (ProbeSet 11739960_a_at) / RFU SYPL1 (11715823_x_at) / Fold change /veh SYPL1 (11715823_x_at) / RFU IGFBP7 (11715501_s_at) / Fold change /veh IGFBP7 (11715501_s_at) / RFU REEP3 (11722064_at) / Fold change /veh REEP3 (11722064_at) / RFU IGLL1 (11728026_x_at) / Fold change /veh IGLL1 (11728026_x_at): dose or concentration left out as unconfirmed. The format is cell-based, human.

Consider `Nc1ccc(-c2cccs2)cc1NC(=O)c1ccc2c(c1)cc(C1CC1)n2CCN1CCOCC1` [ACY-1035], for which the “RFU, DEPTOR” value amounted to 104.61 RFU.

The values are drawn from PMC5218480 (PLoS ONE, 2017).
